These results are taken from US20240140962A1, “5,6-DIHYDROTHIENO[3,4-H]QUINAZOLINE COMPOUND” (MEDSHINE DISCOVERY INC., priority 2021, published 2024).

In data set [1] the target is human PLK1 protein kinase (Homo sapiens (Human), UniProt P53350). As to the kind of experiment: PLK1 kinase activity in vitro, 33P isotope-labeled kinase activity assay. In kind it is biochemical. The note with it: 33P-ATP 30 μM, substrate Casein, PLK1 12 nM. Here is the method: The ^33P isotope-labeled kinase activity assay (Reaction Biology Corp) was used to determine the IC50 value to evaluate the inhibitory ability of the test compound to human PLK1 protein kinase.
Sequence of human PLK1 protein kinase (P53350 whole entry): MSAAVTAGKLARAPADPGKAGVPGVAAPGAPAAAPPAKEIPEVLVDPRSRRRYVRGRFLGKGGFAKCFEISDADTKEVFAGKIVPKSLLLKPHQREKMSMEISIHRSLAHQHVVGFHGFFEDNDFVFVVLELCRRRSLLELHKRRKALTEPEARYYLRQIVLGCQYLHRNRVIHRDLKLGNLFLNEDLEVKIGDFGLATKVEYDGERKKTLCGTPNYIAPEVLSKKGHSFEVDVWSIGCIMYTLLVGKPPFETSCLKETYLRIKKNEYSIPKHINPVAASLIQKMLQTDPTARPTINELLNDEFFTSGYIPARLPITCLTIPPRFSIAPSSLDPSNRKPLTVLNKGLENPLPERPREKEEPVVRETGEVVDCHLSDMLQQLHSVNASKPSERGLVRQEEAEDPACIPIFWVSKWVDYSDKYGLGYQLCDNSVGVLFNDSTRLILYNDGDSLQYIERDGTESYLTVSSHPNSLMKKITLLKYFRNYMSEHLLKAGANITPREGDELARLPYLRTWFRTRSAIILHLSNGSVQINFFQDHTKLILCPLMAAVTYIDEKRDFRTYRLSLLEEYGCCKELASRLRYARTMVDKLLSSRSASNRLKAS
Buffer conditions: 20 mM HEPES (pH 7.5), 10 mM MgCl2, 1 mM EGTA, 0.01% Brij35, 0.02 mg/ml BSA, 0.1 mM Na3VO4, 2 mM DTT, 1% DMSO
Test steps: At room temperature, the compounds to be tested were dissolved in DMSO to prepare a 10 mM solution for use. The substrate Casein was dissolved in a freshly prepared buffer (with a final concentration of 20 μM), and the tested PLK1 kinase (with a final concentration of 12 nM) was added thereto and mixed well. The acoustic wave pipetting system Echo 550 was used to add the mother solution of the test compound dissolved in DMSO to the above mixed reaction mixture according to the set final concentration gradient (the highest final concentration was 1 μM, 3-fold dilution, 10 gradients). After incubation at room temperature for 20 minutes, ^33P-ATP (30 μM) was added, and after incubation at room temperature for 120 minutes, the reaction mixture was spotted on P81 ion exchange filter paper (Whatman #3698-915).

Data set [2] has as its system HCT116 cells. Put plainly: HCT116 cytological activity in vitro (3D CellTiter-Glo proliferation). In kind it is cell-based, human. The conditions noted are these: 5 days culture, ultra-low adsorption plates. Here is the method:
McCoy's 5A medium, penicillin/streptomycin antibiotics was purchased from Vicente, and fetal bovine serum was purchased from Biosera. 3D CellTiter-Glo (cell viability chemiluminescence assay reagent) reagent was purchased from Promega. HCT116 cell line was purchased from Nanjing Cobioer Biosciences Co., Ltd. Envision multimode microplate reader (PerkinElmer).
HCT116 cells were seeded in ultra-low adsorption 96-well U-plates, 80 μL of cell suspension per well, which contained 1000 HCT116 cells. Cell plates were cultured overnight in a carbon dioxide incubator.
The compound to be tested was 5-fold diluted to the 9th concentration with a pipette, that is, diluted from 2 mM to 5.12 nM, and a double-well experiment was set up. 78 μL of medium was added to the intermediate plate, and then 2 μL of each well of the gradient diluted compound was transferred to the intermediate plate according to the corresponding position, 20 μL of each well was transferred to the cell plate after mixing well. Compound concentrations transferred to cell plates ranged from 10 μM to 0.0256 nM. Cell plates were cultured in a carbon dioxide incubator for 5 days. Another cell plate was prepared, and the signal value was read as the maximum value (Max value in the following equation) on the day of drug addition to participate in data analysis.
Every 100 μL of cell viability chemiluminescent detection reagent was added to the cell plate, and incubated at room temperature for 10 minutes to stabilize the luminescent signal. A multimode microplate reader was used to read.
The equation (Sample−Min)/(Max−Min)*100% was used to convert the original data into an inhibition rate, and the value of IC50 can be obtained by curve fitting with four parameters (“log(inhibitor) vs. response in GraphPad Prism—Variable slope” mode). Table 3 provides the inhibitory activity of the compounds of the present disclosure against the proliferation of HCT116 cells.
(In general: ATP-based viability assays read luminescence as a measure of living cells.)

The nature of data set [3]: Pharmacokinetic study in CD-1 male mice by oral administration and intravenous injection. In kind it is in vivo. The text has this:
The purpose of this experiment is to study the pharmacokinetics of the test compound in the plasma of CD-1 male mice after intravenous injection and oral administration.
Intravenous injection group: an appropriate amount of the test compound was weighed and dissolved in 20% SBE-b-CD aqueous solution and the pH was adjusted to 4 to 5 with 6 M hydrochloric acid, and the mixture was vortexed for 2, minutes to obtain a clear solution, and then pH was adjusted around 7 with 5 N sodium hydroxide, and the mixture was vortexed for 1 minute to prepare a 1.5 mg/mL clear solution, which was filtered through a 0.22 μm microporous membrane for later use. CD-1 male mice from 6 to 10 weeks old were selected and given a solution of the test compound intravenously. Samples were collected at 0.083, 0.25, 0.5, 1, 2, 4, 6, 8, and 24 hours.
Oral administration group: an appropriate amount of the test compound was weighed and dissolved in 20% SBE-b-CD aqueous solution, and the pH was adjusted to 3 to 4 with 6 M hydrochloric acid, and the mixture was vortexed for 2, minutes to obtain a clear solution, and then pH was adjusted around 7 with 5 N sodium hydroxide, and mixture was vortexed for 1 minute to prepare a 2.0 mg/mL clear solution for later use. CD-1 male mice between 6 and 10 weeks of age were selected and given the test compounds orally. Samples were collected at 0.25, 0.5, 1, 2, 4, 6, 8, 10, and 24 hours.
Approximately 50 μL of whole blood was collected through the jugular vein at each time point for plasma preparation for concentration determination by high performance liquid chromatography-tandem mass spectrometry (LC-MS/MS). All animals were euthanized under CO2 anesthesia after collecting the PK samples at the last time point. The plasma concentration was processed using the non-compartmental model of WinNonlin™ Version 6.3 (Pharsight, Mountain View, CA) pharmacokinetic software, and the pharmacokinetic parameters were calculated using the linear logarithmic trapezoidal method, and the experimental results are shown in Table 4.

What is called IC50 is the point on the concentration scale where inhibition reaches its midpoint. For the compound `CSc1sc(C(N)=O)c2c1-c1nc(Nc3cc(N4CCN(C)CC4)ncc3OC(F)(F)F)ncc1CC2` [Compound 5], the half-maximal inhibitory concentration (IC50) in data set [1] is 2.6 nM.

In data set [1], `CN1CCN(c2ccc(OC(F)(F)F)c(Nc3ncc4c(n3)-c3c(CCO)sc(C(N)=O)c3CC4)c2)CC1` [Compound 6] showed an IC50 of 6.9 nM. Consider `COc1nnc(N2CCN(C)CC2)cc1Nc1ncc2c(n1)-c1c(SC)sc(C(N)=O)c1CC2` [Compound 17], for which the IC50 in data set [2] (Homo sapiens, HCT-116, 120 h) was 18.3 nM. In data set [2] (Homo sapiens, HCT-116, 120 h), `CN1CCN(c2ccc(OC(F)(F)F)c(Nc3ncc4c(n3)-c3c(-c5ccco5)sc(C(N)=O)c3CC4)c2)CC1` [Compound 20] gave a concentration for half-maximal inhibition (IC50) of 58.6 nM.

Take `CSc1sc(C(=O)NO)c2c1-c1nc(Nc3cc(N4CCN(C)CC4)ccc3OC(F)(F)F)ncc1CC2` [Compound 23]: the IC50 in data set [2] (Homo sapiens, HCT-116, 120 h) is 72 nM. Consider `CSc1sc(C(N)=O)c2c1-c1nc(Nc3cc(N4CCN(C)CC4)ccc3OC(F)F)ncc1CC2` [Compound 4], for which the IC50 turned out to be 1 nM in data set [1] and 35 nM in data set [2]. On to `CN1CCN(c2ccc(OC(F)(F)F)c(Nc3ncc4c(n3)-c3c(C5CC5)sc(C(N)=O)c3CC4)c2)CC1` [Compound 16], for which the IC50 in data set [2] (Homo sapiens, HCT-116, 120 h) was 29.2 nM. On to `CSc1sc(C(N)=O)c2c1-c1nc(Nc3cc(N4CC5CC(C4)N5C)ccc3OC(F)(F)F)ncc1CC2` [Compound 15], for which inhibition in data set [1] was half-maximal at 6.4 nM (IC50). The compound `CN1CCN(c2ccc(OC(F)(F)F)c(Nc3ncc4c(n3)-c3c(C#N)sc(C(N)=O)c3CC4)c2)CC1` [Compound 13] came in with an IC50 in data set [1] of 4.9 nM. Turning to `CN1CCN(c2ccc(OC(F)(F)F)c(Nc3ncc4c(n3)-c3c(OC5CC5)sc(C(N)=O)c3CC4)c2)CC1` [Compound 18], inhibition in data set [1] was half-maximal at 4.3 nM (IC50). Moreover, the IC50 in data set [2] was 74.5 nM. In data set [3] (IV, 1.1 mg/kg, plasma), the “Apparent volume of distribution Vdss” value was determined as 2.38 L/kg, the “Area under the plasma concentration-time curve AUC0-24 h” value worked out at 0.94 µM·h, the “Clearance CL” value is 31.4 mL/min/kg and the “Half-life T½” value amounted to 1.22 h. Also, the “Bioavailability F” value in data set [3] (PO 3.4 mg/kg vs IV 1.1 mg/kg) came to 82.5%. In addition, in data set [3] (PO, 3.4 mg/kg, plasma), the “Area under the plasma concentration-time curve AUC0-24 h” value turned out to be 2.129 µM·h and the “Peak time Tmax” value is given as 1.00 h. In data set [3] (PO, 3.4 mg/kg, plasma, read-out: Peak concentration Cmax), the Cmax was found to be 688 nM. As for `CN1CCN(c2ccc(OC(F)(F)F)c(Nc3ncc4c(n3)-c3c(SCCO)sc(C(N)=O)c3CC4)c2)CC1` [Compound 3], the IC50 in data set [1] was determined as 5 nM.
